Data as given in patent US11872262B2, “Means and methods for treating bacterial infections” (VIB VZW, priority 2017, dated 2024).
Residues, ends and D or L forms follow the SMILES beside them.

Each compound was assayed on E. coli O157:H7. Conditions: screening-stage peptides tested at 1, 6, 12 and 25 μg/mL.
Type: cell-based, Escherichia coli
Source text: In the present invention we used the statistical thermodynamics algorithm TANGO to identify aggregation prone regions (APR) in the proteome of E. coli strain O157:H7. This yielded 3535 sequences of at least 6 amino acids in length and a TANGO score of at least 20%. In order to generate efficient aggregation seeds, we employed a previously devised tandem repeat design ^19, 21, in which the APRs are repeated once and separated by a linker. Given the length limitation on solid phase peptide synthesis with regard to yield and purity, we focused on the 1542 APRs with a length of 7 amino acids. In order to maximize the potential of these peptides to induce aggregation in E. coli, we ranked the APRs by their frequency of occurrence throughout the E. coli proteome, allowing a single amino acid mismatch, and selected the first 75 most frequently occurring sequences from this list (Table 4). In the design pattern, and in order to increase the colloidal stability of these aggregating peptides, the APRs are flanked by aggregation gatekeepers, a class of residues that was previously shown to reduce aggregation kinetics^22-24. […] To generate the tandem we used a single proline residue as a linker between the gatekeeper-flanked APRs. In addition to the 75 peptides generated in this fashion, we added 2 variants of each of the first 25 peptides in the list by randomly mutating one residue in the first APR repeat to arginine to further modulate the aggregation propensity of the peptides (Table 4). All the peptides were generated using solid phase synthesis at 200 nmole scale and dissolved in DMSO to a theoretical stock concentration of 2 mM (assuming 100% synthesis efficiency). Peptide activity on the growth of E. coli O157:H7 was measured at dilutions of the peptide corresponding to concentrations of 1, 6, 12 and 25 μg/mL. […] The Matthews Correlations Coefficient (MCC) with the measured activity was 0.1 at 12 μg/mL and 0.24 at 25 μg/mL.

| SMILES | E. coli O157 (apparent MIC in screen) [µg/mL] |
| --- | --- |
| CC(C)C[C@H](NC(=O)[C@H](C)NC(=O)[C@H](CCCNC(=N)N)NC(=O)[C@@H]1CCCN1C(=O)[C@H](CCCNC(=N)N)NC(=O)[C@H](CCCNC(=N)N)NC(=O)[C@H](CC(C)C)NC(=O)[C@@H](NC(=O)[C@H](C)NC(=O)[C@@H](NC(=O)[C@H](CC(C)C)NC(=O)[C@H](CC(C)C)NC(=O)[C@H](C)NC(=O)[C@@H](N)CCCNC(=N)N)[C@@H](C)O)C(C)C)C(=O)N[C@@H](CC(C)C)C(=O)N[C@H](C(=O)N[C@@H](C)C(=O)N[C@H](C(=O)N[C@@H](CC(C)C)C(=O)N[C@@H](CCCNC(=N)N)C(=O)N[C@@H](CCCNC(=N)N)C(=O)O)C(C)C)[C@@H](C)O [Peptide P16] (H-RALLTAVLRRPRALLTAVLRR-OH; N-terminus and C-terminus assumed) | 25 |
| CC[C@H](C)[C@H](NC(=O)[C@H](CCCNC(=N)N)NC(=O)[C@@H]1CCCN1C(=O)[C@H](CCCNC(=N)N)NC(=O)[C@H](CCCNC(=N)N)NC(=O)[C@H](CC(N)=O)NC(=O)[C@H](CC(C)C)NC(=O)[C@@H](NC(=O)[C@H](CCCNC(=N)N)NC(=O)[C@@H](NC(=O)[C@@H](NC(=O)[C@@H](NC(=O)[C@@H](N)CCCNC(=N)N)[C@@H](C)CC)C(C)C)[C@@H](C)O)[C@@H](C)O)C(=O)N[C@H](C(=O)N[C@H](C(=O)N[C@H](C(=O)N[C@H](C(=O)N[C@@H](CC(C)C)C(=O)N[C@@H](CC(N)=O)C(=O)N[C@@H](CCCNC(=N)N)C(=O)N[C@@H](CCCNC(=N)N)C(=O)O)[C@@H](C)O)C(C)C)[C@@H](C)O)C(C)C [Peptide P125] (H-RIVTRTLNRRPRIVTVTLNRR-OH; N-terminus and C-terminus assumed) | 25 |
| CC(C)C[C@H](NC(=O)[C@H](C)NC(=O)[C@H](CC(C)C)NC(=O)[C@H](CC(C)C)NC(=O)[C@H](CC(C)C)NC(=O)[C@H](CCCNC(=N)N)NC(=O)[C@@H]1CCCN1C(=O)[C@H](CCCNC(=N)N)NC(=O)[C@H](CCCNC(=N)N)NC(=O)[C@H](CO)NC(=O)[C@H](CCCNC(=N)N)NC(=O)[C@H](CC(C)C)NC(=O)[C@H](C)NC(=O)[C@H](CC(C)C)NC(=O)[C@H](CC(C)C)NC(=O)[C@H](CC(C)C)NC(=O)[C@@H](N)CCCNC(=N)N)C(=O)N[C@@H](CC(C)C)C(=O)N[C@@H](CO)C(=O)N[C@@H](CCCNC(=N)N)C(=O)N[C@@H](CCCNC(=N)N)C(=O)O [Peptide P103] (H-RLLLALRSRRPRLLLALLSRR-OH; N-terminus and C-terminus assumed) | 25 |
| CC(C)C[C@H](NC(=O)[C@H](C)NC(=O)[C@H](CC(C)C)NC(=O)[C@@H](NC(=O)[C@H](C)NC(=O)[C@H](CO)NC(=O)[C@H](CCCNC(=N)N)NC(=O)[C@@H]1CCCN1C(=O)[C@H](CCCNC(=N)N)NC(=O)[C@H](CCCNC(=N)N)NC(=O)[C@H](CC(C)C)NC(=O)[C@H](CC(C)C)NC(=O)[C@H](C)NC(=O)[C@H](CCCNC(=N)N)NC(=O)[C@@H](NC(=O)[C@H](C)NC(=O)[C@H](CO)NC(=O)[C@@H](N)CCCNC(=N)N)C(C)C)C(C)C)C(=O)N[C@@H](CC(C)C)C(=O)N[C@@H](CCCNC(=N)N)C(=O)N[C@@H](CCCNC(=N)N)C(=O)O [Peptide P118] (H-RSAVRALLRRPRSAVLALLRR-OH; N-terminus and C-terminus assumed) | 25 |
| CC(C)C[C@H](NC(=O)[C@H](C)NC(=O)[C@H](CC(C)C)NC(=O)[C@H](CC(C)C)NC(=O)[C@H](CC(C)C)NC(=O)[C@H](CCCNC(=N)N)NC(=O)[C@@H]1CCCN1C(=O)[C@H](CCCNC(=N)N)NC(=O)[C@H](CCCNC(=N)N)NC(=O)[C@H](CO)NC(=O)[C@H](CC(C)C)NC(=O)[C@H](CC(C)C)NC(=O)[C@H](C)NC(=O)[C@H](CC(C)C)NC(=O)[C@H](CC(C)C)NC(=O)[C@H](CC(C)C)NC(=O)[C@@H](N)CCCNC(=N)N)C(=O)N[C@@H](CC(C)C)C(=O)N[C@@H](CO)C(=O)N[C@@H](CCCNC(=N)N)C(=O)N[C@@H](CCCNC(=N)N)C(=O)O [Peptide P3] (H-RLLLALLSRRPRLLLALLSRR-OH; N-terminus and C-terminus assumed) | 12 |
| CC(C)C[C@H](NC(=O)[C@H](C)NC(=O)[C@H](CC(C)C)NC(=O)[C@@H](NC(=O)[C@H](CCCNC(=N)N)NC(=O)[C@@H]1CCCN1C(=O)[C@H](CCCNC(=N)N)NC(=O)[C@H](CCCNC(=N)N)NC(=O)[C@H](CC(C)C)NC(=O)[C@H](C)NC(=O)[C@H](CCCNC(=N)N)NC(=O)[C@H](CC(C)C)NC(=O)[C@H](C)NC(=O)[C@H](CC(C)C)NC(=O)[C@@H](NC(=O)[C@@H](N)CCCNC(=N)N)C(C)C)C(C)C)C(=O)N[C@@H](C)C(=O)N[C@@H](C)C(=O)N[C@@H](CC(C)C)C(=O)N[C@@H](CCCNC(=N)N)C(=O)N[C@@H](CCCNC(=N)N)C(=O)O [Peptide P111] (H-RVLALRALRRPRVLALAALRR-OH; N-terminus and C-terminus assumed) | 25 |
| CC(C)C[C@H](NC(=O)CNC(=O)[C@H](CCCNC(=N)N)NC(=O)[C@@H]1CCCN1C(=O)[C@H](CCCNC(=N)N)NC(=O)[C@H](CCCNC(=N)N)NC(=O)[C@H](C)NC(=O)[C@H](CC(C)C)NC(=O)[C@H](CCCNC(=N)N)NC(=O)[C@H](C)NC(=O)[C@H](CC(C)C)NC(=O)[C@H](CC(C)C)NC(=O)CNC(=O)[C@@H](N)CCCNC(=N)N)C(=O)N[C@@H](CC(C)C)C(=O)N[C@@H](C)C(=O)N[C@@H](CC(C)C)C(=O)N[C@@H](CC(C)C)C(=O)N[C@@H](C)C(=O)N[C@@H](CCCNC(=N)N)C(=O)N[C@@H](CCCNC(=N)N)C(=O)O [Peptide P89] (H-RGLLARLARRPRGLLALLARR-OH; N-terminus and C-terminus assumed) | 12 |
| CC(C)C[C@H](NC(=O)[C@H](CC(C)C)NC(=O)[C@H](CC(C)C)NC(=O)[C@H](CCCNC(=N)N)NC(=O)[C@@H]1CCCN1C(=O)[C@H](CCCNC(=N)N)NC(=O)[C@H](CCCNC(=N)N)NC(=O)[C@@H](NC(=O)[C@H](CC(C)C)NC(=O)[C@H](CC(C)C)NC(=O)[C@H](CO)NC(=O)[C@H](CCCNC(=N)N)NC(=O)[C@H](CC(C)C)NC(=O)[C@H](CC(C)C)NC(=O)[C@@H](N)CCCNC(=N)N)C(C)C)C(=O)N[C@@H](CO)C(=O)N[C@@H](CC(C)C)C(=O)N[C@@H](CC(C)C)C(=O)N[C@H](C(=O)N[C@@H](CCCNC(=N)N)C(=O)N[C@@H](CCCNC(=N)N)C(=O)O)C(C)C [Peptide P101] (H-RLLRSLLVRRPRLLLSLLVRR-OH; N-terminus and C-terminus assumed) | 12 |
| CC[C@H](C)[C@H](NC(=O)CNC(=O)[C@H](CCCNC(=N)N)NC(=O)[C@H](CC(C)C)NC(=O)[C@@H](N)CCCNC(=N)N)C(=O)N[C@@H](C)C(=O)N[C@@H](CC(C)C)C(=O)NCC(=O)N[C@@H](CCCNC(=N)N)C(=O)N[C@@H](CCCNC(=N)N)C(=O)N1CCC[C@H]1C(=O)N[C@@H](CCCNC(=N)N)C(=O)N[C@@H](CC(C)C)C(=O)N[C@H](C(=O)NCC(=O)N[C@H](C(=O)N[C@@H](C)C(=O)N[C@@H](CC(C)C)C(=O)NCC(=O)N[C@@H](CCCNC(=N)N)C(=O)N[C@@H](CCCNC(=N)N)C(=O)O)[C@@H](C)CC)[C@@H](C)CC [Peptide P90] (H-RLRGIALGRRPRLIGIALGRR-OH; N-terminus and C-terminus assumed) | 25 |
| CC(C)C[C@H](NC(=O)[C@H](C)NC(=O)[C@H](CC(C)C)NC(=O)[C@@H](NC(=O)[C@H](C)NC(=O)[C@H](CO)NC(=O)[C@H](CCCNC(=N)N)NC(=O)[C@@H]1CCCN1C(=O)[C@H](CCCNC(=N)N)NC(=O)[C@H](CCCNC(=N)N)NC(=O)[C@H](CC(C)C)NC(=O)[C@H](CC(C)C)NC(=O)[C@H](C)NC(=O)[C@H](CC(C)C)NC(=O)[C@@H](NC(=O)[C@H](C)NC(=O)[C@H](CO)NC(=O)[C@@H](N)CCCNC(=N)N)C(C)C)C(C)C)C(=O)N[C@@H](CC(C)C)C(=O)N[C@@H](CCCNC(=N)N)C(=O)N[C@@H](CCCNC(=N)N)C(=O)O [Peptide P18] (H-RSAVLALLRRPRSAVLALLRR-OH; N-terminus and C-terminus assumed) | 12 |
| CC(C)C[C@H](NC(=O)[C@H](C)NC(=O)[C@@H](N)CCCNC(=N)N)C(=O)N[C@@H](C)C(=O)N[C@@H](CCCNC(=N)N)C(=O)N[C@@H](C)C(=O)N[C@@H](CC(C)C)C(=O)N[C@@H](CC(C)C)C(=O)N[C@@H](CCCNC(=N)N)C(=O)N[C@@H](CCCNC(=N)N)C(=O)N1CCC[C@H]1C(=O)N[C@@H](CCCNC(=N)N)C(=O)N[C@@H](C)C(=O)N[C@@H](CC(C)C)C(=O)N[C@@H](C)C(=O)N[C@H](C(=O)N[C@@H](C)C(=O)N[C@@H](CC(C)C)C(=O)N[C@@H](CC(C)C)C(=O)N[C@@H](CCCNC(=N)N)C(=O)N[C@@H](CCCNC(=N)N)C(=O)O)C(C)C [Peptide P112] (H-RALARALLRRPRALAVALLRR-OH; N-terminus and C-terminus assumed) | 25 |
